# Tests used:
# Format in all cases: cell-based
# A431 (EGFR-WT) = experiment: Cell proliferation assay (CellTiter-Glo), A431 cells; settings: Homo sapiens, A-431, 72 hrs, CTG assay, * = average of multiple measurements
# Procedure: (§1) I. Cell proliferation assay (i) Reagents and consumables • Fetal bovine serum (FBS) (GBICO, Cat #10099-141); • CellTiter-Glo® Luminescent Cell Viability Assay Kit (Promega, Cat #G7572); • Black transparent flat-bottomed 96-well plate (Corning®, Cat #3603).
# (§2) • SpectraMax Multi-Label Microplate Detector MD, 2104-0010A; • CO2 incubator, Thermo Scientific 3100 Series; • Biosafety cabinet, Thermo Scientific, 1300 Series type A2; • Inverted microscope, Olympus, CKX41SF; • Siemens refrigerator KK25E76TI. (iii) Cell lines and culture conditions
# (§3) (iv) Experimental procedures 1. Cell culture and seeding: • (1) Cells in the logarithmic growth phase were harvested, and counted using a platelet counter. Cell viability was detected by the trypan blue exclusion assay to ensure that the cell viability was above 90%. • (2) The cell concentration was adjusted to achieve the final density; and 90 μL of the cell suspension was added to the 96-well plate. • (3) The cells were incubated in the 96-well plate overnight at 37° C. in the presence of 5% CO2 with 95% humidity. 2. TO benchmark data: • (1) 10 μL of PBS was added to each well of the TO flat plate containing the cells. • (2) The CTG reagent was thawed, and the cell plate was equilibrated to room temperature for 30 min. • (3) An equal volume of CTG solution was added to each well. • (4) The cells were shaken for 5 min on an orbital shaker for lysis. • (5) The cell plate was left at room temperature for 20 min to stabilize luminescent signals. • (6) The values of TO luminescent signals were read. 3. Compound dilution and addition • (1) According to the compound information table, a corresponding volume of DMSO was added to the corresponding compound powder to prepare a 10 mM stock solution. • (2) Compound solutions diluted at 1000 fold and 3.16 fold were prepared. • (3) The compound solution diluted at 1000 fold was diluted at 100 fold with PBS, to prepare the compound solutions at 10 fold in 9 concentrations, with the maximum concentration of […]; and the compound solution was diluted at 3.16 fold. 10 μL of medicament solution was added to each well of the seeded 96-well plate. Three replicate wells were provided for each concentration of the compound, and the final concentration of DMSO was 0.1%. • (4) Cells were placed in the 96-well plate containing the medicament and subsequently cultured for 72 hrs at 37° C. in the presence of 5% CO2 with 95% humidity, and then, CTG assay was conducted. 4. Reading of luminescent signals • (1) The CTG reagent was thawed, and the cell plate was equilibrated to room temperature for 30 min. • (2) An equal volume of CTG solution was added to each well. • (3) The cells were shaken for 5 min on an orbital shaker for lysis.
# (§4) (4) The cell plate was left at room temperature for 20 min to stabilize the luminescent signals. • (5) Luminescent values were read. Data processing
# (§5) The data were analyzed using software GraphPad Prism 7.0, and fitted by the nonlinear S-curve regression to obtain a dose-effect curve, based on which the IC50 value (unit: nM) was calculated, with the specific test results shown in Table 1.
# (§6) Cell viability (%)=(Lum test medicament-Lum culture medium control)/(Lum cell control-Lum culture medium control)×100%.
# [1] = molecular target: Ba/F3 EGFR-D770-N771ins_SVD (Homo sapiens, UniProt P00533, DUP768-770, cells depend on it); experiment: Cell proliferation assay (CellTiter-Glo), Ba/F3 EGFR-D770-N771ins_SVD cells; settings: 72 hrs, CTG assay, * = average of multiple measurements, read-out: Ba/F3 EGFR-D770-N771ins_SVD (nM), IC50 of cell proliferation
# Ba/F3 EGFR-D770-N771ins_SVD, sequence (P00533 with tags, fused parts or gaps DUP768-770): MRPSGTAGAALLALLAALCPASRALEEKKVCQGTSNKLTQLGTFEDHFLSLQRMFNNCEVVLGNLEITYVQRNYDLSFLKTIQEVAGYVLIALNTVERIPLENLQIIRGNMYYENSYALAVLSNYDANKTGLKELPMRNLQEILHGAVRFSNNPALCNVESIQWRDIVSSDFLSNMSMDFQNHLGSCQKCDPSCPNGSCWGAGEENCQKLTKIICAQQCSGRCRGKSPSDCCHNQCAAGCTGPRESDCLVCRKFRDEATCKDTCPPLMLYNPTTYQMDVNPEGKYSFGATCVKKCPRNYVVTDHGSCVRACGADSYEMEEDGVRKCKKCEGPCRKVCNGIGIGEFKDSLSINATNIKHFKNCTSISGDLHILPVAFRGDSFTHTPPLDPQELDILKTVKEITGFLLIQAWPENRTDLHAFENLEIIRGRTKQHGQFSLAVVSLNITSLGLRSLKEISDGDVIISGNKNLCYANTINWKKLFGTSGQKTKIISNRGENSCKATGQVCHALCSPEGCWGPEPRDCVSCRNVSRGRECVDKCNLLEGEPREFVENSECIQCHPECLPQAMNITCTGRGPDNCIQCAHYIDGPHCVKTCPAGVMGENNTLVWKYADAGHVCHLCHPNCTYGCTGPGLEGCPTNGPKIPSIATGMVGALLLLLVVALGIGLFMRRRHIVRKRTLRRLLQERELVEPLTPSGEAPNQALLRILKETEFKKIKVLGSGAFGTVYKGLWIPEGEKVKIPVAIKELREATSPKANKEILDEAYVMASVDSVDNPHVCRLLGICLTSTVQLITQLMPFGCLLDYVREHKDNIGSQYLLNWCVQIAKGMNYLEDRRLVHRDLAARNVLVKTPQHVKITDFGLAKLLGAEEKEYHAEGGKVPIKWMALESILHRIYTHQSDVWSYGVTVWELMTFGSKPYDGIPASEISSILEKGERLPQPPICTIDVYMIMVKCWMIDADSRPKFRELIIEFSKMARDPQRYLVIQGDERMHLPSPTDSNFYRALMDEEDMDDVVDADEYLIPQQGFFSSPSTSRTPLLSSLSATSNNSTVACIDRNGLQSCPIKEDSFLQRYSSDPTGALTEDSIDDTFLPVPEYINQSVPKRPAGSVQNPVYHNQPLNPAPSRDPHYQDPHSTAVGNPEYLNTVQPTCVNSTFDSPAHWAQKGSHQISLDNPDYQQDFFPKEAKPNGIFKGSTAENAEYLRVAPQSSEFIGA
# Procedure: as §1, §2, §3, §4, §5, §6
# [2] = molecular target: Ba/F3 EGFR-V769_D770insASV (Homo sapiens, UniProt P00533, DUP767-769, cells depend on it); experiment: Cell proliferation assay (CellTiter-Glo), Ba/F3 EGFR-V769_D770insASV cells; settings: 72 hrs, CTG assay, * = average of multiple measurements, read-out: Ba/F3 EGFR-V769_D770insASV (nM), IC50 of cell proliferation
# Ba/F3 EGFR-V769_D770insASV, sequence (P00533 with tags, fused parts or gaps DUP767-769): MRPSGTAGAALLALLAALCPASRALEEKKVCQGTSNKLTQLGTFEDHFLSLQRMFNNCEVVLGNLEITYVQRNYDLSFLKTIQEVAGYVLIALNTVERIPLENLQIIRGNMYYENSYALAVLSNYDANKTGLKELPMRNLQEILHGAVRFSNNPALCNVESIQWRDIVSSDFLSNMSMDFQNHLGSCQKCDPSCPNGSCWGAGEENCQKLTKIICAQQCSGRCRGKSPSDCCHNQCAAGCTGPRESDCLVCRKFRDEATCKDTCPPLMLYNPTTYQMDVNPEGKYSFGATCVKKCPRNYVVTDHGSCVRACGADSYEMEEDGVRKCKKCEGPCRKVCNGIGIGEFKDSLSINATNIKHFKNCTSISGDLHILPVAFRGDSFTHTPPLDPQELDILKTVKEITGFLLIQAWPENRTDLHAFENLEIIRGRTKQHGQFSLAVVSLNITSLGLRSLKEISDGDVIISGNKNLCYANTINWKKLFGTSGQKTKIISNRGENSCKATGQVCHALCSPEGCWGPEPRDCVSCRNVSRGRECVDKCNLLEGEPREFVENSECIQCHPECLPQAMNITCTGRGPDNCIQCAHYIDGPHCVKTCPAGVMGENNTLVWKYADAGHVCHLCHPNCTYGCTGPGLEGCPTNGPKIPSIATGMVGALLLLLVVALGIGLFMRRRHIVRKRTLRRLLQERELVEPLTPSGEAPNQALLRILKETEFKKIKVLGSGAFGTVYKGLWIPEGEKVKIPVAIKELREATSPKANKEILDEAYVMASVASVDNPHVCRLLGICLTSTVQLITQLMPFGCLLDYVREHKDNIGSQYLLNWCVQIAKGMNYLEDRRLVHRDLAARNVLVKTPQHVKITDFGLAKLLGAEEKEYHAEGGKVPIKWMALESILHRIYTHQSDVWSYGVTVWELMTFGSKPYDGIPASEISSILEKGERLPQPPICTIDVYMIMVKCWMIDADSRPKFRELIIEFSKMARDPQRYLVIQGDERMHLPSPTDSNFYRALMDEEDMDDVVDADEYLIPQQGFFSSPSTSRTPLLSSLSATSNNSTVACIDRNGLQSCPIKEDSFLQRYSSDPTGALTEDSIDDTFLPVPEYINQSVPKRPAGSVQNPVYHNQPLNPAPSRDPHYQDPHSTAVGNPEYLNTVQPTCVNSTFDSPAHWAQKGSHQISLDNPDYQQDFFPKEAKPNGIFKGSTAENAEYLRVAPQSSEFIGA
# Procedure: as §1, §2, §3, §4, §5, §6
smiles,measurement,setting,value
"C=CC(=O)Nc1cc(Nc2nccc(N3CC4(CCCC4)c4nc(C)ccc43)n2)c(OC(F)F)cc1N(C)CCN(C)C [Example 39, N-(4-(difluoromethoxy)-2-((2-(dimethylamino)ethyl)(methyl)amino)-5-((4-(5′-methylspiro[cyclo-pentane-1,3′-pyrrolo[3,2-b]pyridin]-1′(2′H)-yl)pyrimidin-2-yl)amino)phenyl)acrylamide]",IC50,A431 (EGFR-WT),396 nM
same,GI50,[1],24.9 nM
same,GI50,[2],35.8 nM
"C=CC(=O)Nc1cc(Nc2cc(N3CC(C)(C)c4nc(C)c(C)cc43)ncn2)c(OC)cc1N(C)CCN(C)C [Example 28, N-(2-((2-(dimethylamino)ethyl) (methyl)amino)-4-methoxy-5-((6-(3,3,5,6-tetramethyl-2,3-dihydro-1H-pyrrolo[3,2-b]pyridin-1-yl)pyrimidin-4-yl)amino)phenyl)acrylamide]",IC50,A431 (EGFR-WT),26.3 nM
same,GI50,[1],28.9 nM
same,GI50,[2],37.1 nM
"C=CC(=O)Nc1cc(Nc2nccc(N3CC(C)(C)c4nc(C)ccc43)n2)c(OCC)cc1N(C)CCN(C)C [Example 24, N-(2-((2-(dimethylamino)ethyl) (methyl)amino)-4-ethoxy-5-((4-(3,3,5-trimethyl-2,3-dihydro-1H-pyrrolo[3,2-b]pyridin-1-yl)pyrimidin-2-yl)amino)phenyl)acrylamide]",IC50,A431 (EGFR-WT),850 nM
same,GI50,[1],25.4 nM
same,GI50,[2],44.3 nM
"C=CC(=O)Nc1cc(Nc2nccc(N3CC4(CCCCC4)c4nc(C)ccc43)n2)c(OC)cc1N(C)CCN(C)C [Example 32, N-(2-((2-(dimethylamino)ethyl) (methyl)amino)-4-methoxy-5-((4-(5′-methylspiro[cyclohexane-1,3′-pyrrolo[3,2-b]pyridin]-1′(2′H)-yl)pyrimidin-2-yl)amino)phenyl)acrylamide]",IC50,A431 (EGFR-WT),53.7 nM
same,GI50,[1],35.7 nM
same,GI50,[2],95.8 nM
"C=CC(=O)Nc1cc(Nc2ncnc(N3CC4(CCC4)c4ncccc43)n2)c(OC)cc1N(C)CCN(C)C [Example 55, N-(2-((2-(dimethylamino)ethyl) (methyl)amino)-4-methoxy-5-((4-(spiro[cyclobutane-1,3′-pyrrolo[3,2-b]pyridin]-1′(2′H)-yl)-1,3,5-triazin-2-yl)amino)phenyl)acrylamide]",IC50,A431 (EGFR-WT),312 nM
same,GI50,[1],23.8 nM
same,GI50,[2],47 nM
"C=CC(=O)Nc1cc(Nc2nccc(N3CC(C)(C)c4nc(-n5cnc(C)c5)ccc43)n2)c(OC)cc1N(C)CCN(C)C [Example 60, N-(5-((4-(3,3-dimethyl-5-(4-methyl-1H-imidazole-1-yl)-2,3-dihydro-1H-pyrrolo[3,2-b]pyridin-1-yl)pyrimidin-2-yl)amino)-2-((2-(dimethylamino)ethyl)(methyl)amino)-4-methoxyphenyl)acrylamide]",IC50,A431 (EGFR-WT),747 nM
same,GI50,[1],34.5 nM
same,GI50,[2],110 nM
"C=CC(=O)Nc1cc(Nc2cc(N3CC(C)(C)c4nc(C)ccc43)ccn2)c(OC)nc1N(C)CCN(C)C [Example 15, N-(2-((2-(dimethylamino)ethyl) (methyl)amino)-6-methoxy-5-((4-(3,3,5-trimethyl-2,3-dihydro-1H-pyrrolo[3,2-b]pyridin-1-yl)pyridin-2-yl)amino)pyridin-3-yl)acrylamide]",IC50,A431 (EGFR-WT),815 nM
same,GI50,[1],37 nM
same,GI50,[2],74.8 nM
"C=CC(=O)Nc1cc(Nc2nccc(N3CC4(CCC4)c4nc(C)ccc43)n2)c(OC)cc1N(C)CCN(C)C [Example 52, N-(2-((2-(dimethylamino)ethyl) (methyl)amino)-4-methoxy-5-((4-(5′-methylspiro[cyclobutane-1,3′-pyrrolo[3,2-b]pyridin]-1′(2′H)-yl)pyrimidin-2-yl)amino)phenyl) acrylamide]",IC50,A431 (EGFR-WT),189 nM
same,GI50,[1],32.9 nM
same,GI50,[2],54.2 nM
"C=CC(=O)Nc1cc(Nc2nccc(N3CC(C)(C)c4nc(C5CC5)ccc43)n2)c(OC)nc1N(C)CCN(C)C [Example 69, N-(5-((4-(5-cyclopropyl-3,3-dimethyl-2,3-dihydro-1H-pyrrolo [3,2-b]pyridin-1-yl)pyrimidin-2-yl)amino)-2-((2-(dimethylamino)ethyl) (methyl)amino)-6-methoxypyridin-3-yl)acrylamide]",IC50,A431 (EGFR-WT),317 nM
same,GI50,[1],24.8 nM
same,GI50,[2],53.7 nM
"C=CC(=O)Nc1cc(Nc2ncnc(N3CC(C)(C)c4nc(Cl)c(C)cc43)n2)c(OC)cc1N(C)CCN(C)C [Example 34, N-(5-((4-(5-chloro-3,3,6-trimethyl-2,3-dihydro-1H-pyrrolo[3,2-b]pyridin-1-yl)-1,3,5-triazin-2-yl)amino)-2-((2-(dimethylamino)ethyl) (methyl)amino)-4-methoxyphenyl) acrylamide]",IC50,A431 (EGFR-WT),47.7 nM
same,GI50,[1],22.5 nM
same,GI50,[2],68.4 nM
"C=CC(=O)Nc1cc(Nc2nccc(N3CC(C)(C)c4nc(C)ccc43)n2)c(OC(F)F)cc1N(C)CCN(C)C [Example 47, N-(4-(difluoromethoxy)-2-((2-(dimethylamino)ethyl)(methyl)amino)-5-((4-(3,3,5-trimethyl-2,3-dihydro-1H-pyrrolo[3,2-b]pyridin-1-yl)pyrimidin-2-yl)amino)phenyl) acrylamide]",IC50,A431 (EGFR-WT),378 nM
same,GI50,[1],12.9 nM
same,GI50,[2],5.6 nM
"C=CC(=O)Nc1cc(Nc2nccc(N3CC(C)(C)c4nc(C)ccc43)n2)c(OC)cc1N(C)CCN(C)C [Example 5, N-(2-((2-(dimethylamino)ethyl) (methyl)amino)-4-methoxy-5-((4-(3,3,5-trimethyl-2,3-dihydro-1H-pyrrolo[3,2-b]pyridin-1-yl)pyrimidin-2-yl)amino)phenyl)acrylamide]",IC50,A431 (EGFR-WT),411 nM
same,GI50,[1],26.6 nM
same,GI50,[2],31.4 nM
"C#Cc1ccc2c(n1)C(C)(C)CN2c1ccnc(Nc2cc(NC(=O)C=C)c(N(C)CCN(C)C)cc2OC(F)F)n1 [Example 68, N-(4-(difluoromethoxy)-2-((2-(dimethylamino)ethyl)(methyl)ami-no)-5-((4-(5-ethynyl-3,3-dimeth-yl-2,3-dihydro-1H-pyrrolo[3,2-b]pyridin-1-yl)pyrimidin-2-yl)amino)phenyl)acrylamide]",IC50,A431 (EGFR-WT),673 nM
same,GI50,[1],6.5 nM
same,GI50,[2],17.1 nM
"C=CC(=O)Nc1cc(Nc2nccc(N3CC4(CCC4)c4ncccc43)n2)c(OC)cc1N(C)CCN(C)C [Example 63, N-(2-((2-(dimethylamino)ethyl) (methyl)amino)-4-methoxy-5-((4-(spiro[cyclobutane-1,3′-pyrrolo [3,2-b]pyridin]-1′(2′H)-yl)pyrimidin-2-yl)amino)phenyl)acrylamide]",IC50,A431 (EGFR-WT),532 nM
same,GI50,[1],39.6 nM
same,GI50,[2],116 nM
"C=CC(=O)Nc1cc(Nc2nccc(N3CC(C)(C)c4nc(C5CC5)ccc43)n2)c(OC)cc1N(C)CCN(C)C [Example 17, N-(5-((4-(5-cyclopropyl-3,3-dimethyl-2,3-dihydro-1H-pyrrolo[3,2-b]pyridin-1-yl)pyrimidin-2-yl)amino)-2-((2-(dimethylamino)ethyl) (methyl)amino)-4-methoxyphenyl) acrylamide]",IC50,A431 (EGFR-WT),125 nM
same,GI50,[1],33.9 nM
same,GI50,[2],54.6 nM
"C=CC(=O)Nc1cc(Nc2cc(N3CC(C)(C)c4ncccc43)ccn2)c(OC)cc1N(C)CCN(C)C [Example 1, N-(5-((4-(3,3-dimethyl-2,3-dihydro-1H-pyrrolo[3,2-b]pyridin-1-yl)pyridin-2-yl)amino)-2-((2-(dimethylamino)ethyl)(methyl)amino)-4-methoxyphenyl)acrylamide]",IC50,A431 (EGFR-WT),898 nM
same,GI50,[1],60.2 nM
same,GI50,[2],69.8 nM

# From patent US20240109885A1, “2,3-DIHYDRO-1H-PYRROLO[3,2-B]PYRIDINE DERIVATIVE, PREPARATION METHOD THEREFOR, AND APPLICATION THEREOF” (Abbisko Therapeutics Co., Ltd, priority 2020, published 2024)
